Assay results as given in patent US8017374B2, “Processes for decolorization of colored effluents” (priority 2005, dated 2011).

Key:
fungus MTCC 5159 = experiment: Decolorization of dyes and effluents by growing fungus culture; assay type: cell-based, unidentified marine fungus NIOCC #2a (MTCC 5159); details: FIG. 2a, up to day 6
Excerpt: Black liquor is dark brown in color and after decolorization by the fungus MTCC 5159, it turns light brown after 6 days. Similarly molasses spent wash is dark brown and turns straw color after 6 days. Textile effluents A, originally magenta in color was comparatively difficult to decolorize whereas Textile effluent B, originally bottle green in color was comparatively easy to decolorize to a light green color after 6 days. The process for the decolorization of various effluents utilizing the fungal biomass involves addition of sterilized, appropriately diluted effluents to a 6 day-old culture of NIOCC 2a growing in B&K medium. The degradation of effluents and various dyes is monitored spectrophotometrically by removing an aliquot of sample from these cultures and measuring changes in absorbance at appropriate wavelengths. The decolorization is measured every alternate day up to 6 days. […]
The fungus MTCC 5159 was tested for its ability to decolorize various dyes and effluents by monitoring the change in its specific absorbance maxima every alternate day over a period of 6 days after the dye/effluents were added. […] The extent of decolorization was recorded as residual color (in percentage). […] Effluents like textile effluent A, B, MSW and black liquor were also monitored at their absorbance maxima in B&K medium, at 505, 663, 663 and 317 nm respectively.

[1] = Decolorization using exopolymeric substance produced by NIOCC 2a; parameters: species or system unidentified marine fungus NIOCC #2a (MTCC 5159); details: 24 hours, dyes 0.015-0.04%, 10 mg EPS, 60° C., phosphate buffer pH 6
Method: The process of decolorization of effluents using the exoploymeric substance (EPS) produced by the fungus is carried out using separated and freeze dried EPS. A known amount of EPS is incubated with appropriately diluted effluents for a period of 6 to 12 hours. The decolorization is monitored in the supernatant after centrifugation. While using the EPS, about 10 mg of EPS (dry weight) is contacted with 3 ml of effluent having the final concentration of 10%.
The exopolymeric substance (EPS) of the fungus NIOCC 2a was prepared as follows: 1 liter of a 12 day old culture filtrate was frozen for 12 to 24 hours and allowed to thaw. The EPS precipitated on thawing and was removed by decantation. Methanol at a final concentration of 70% was added to the supernatant to further precipitate the remaining EPS from the culture supernatant. The precipitated EPS was collected by centrifugation and the pooled precipitate was lyophilized. To 10 mg of this EPS, various dyes and effluents were added at concentrations as given in example 2 and incubated at 60° C. with phosphate buffer at pH 6. […]

NIOCC 2a = experiment: Enhancement of laccase production by inducers; laccase activity in culture supernatant (ABTS); details: for LACCASE ACTIVITY: dyes as inducers at 0.015-0.04%;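 as to all read-outs here: supernatant laccase measured by 2 mM ABTS oxidation in 100 mM glycine-HCl buffer at pH 3, absorbance at 405 nm tracked over time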
Method: The laccase activity in the culture supernatant was measured using 2 mM ABTS prepared in 100 mM glycine-HCl buffer (pH 3) at 405 nm spectrophotometrically as a function of time.
In order to enhance the laccase production by MTCC 5159 various inducers were added to a 3 day old culture grown in B&K medium prepared in 25 ppt sea water having a pH of 7.0. The inducers such as p-anisidine, catechol, guaiacol, ferulic acid, vanillic acid, veratryl alcohol and 2,5 dimethyl aniline were used at a final concentration of 1 mM. […] The laccase activity in the culture supernatant was measured at an interval of 3 days up to 21 days as described in Example 1.
Dyes which are generally used for decolorization were also tested for their laccase induction properties. Trypan blue, aniline blue and remazol brilliant blue R at a final concentration of 0.04%, methylene blue, crystal violet, brilliant green and congo red at 0.02% and reactive orange 176 at 0.015% final concentration were added to B & K medium prepared in 25 ppt sea water having the pH of 7.0.

[2] = tested on: culture supernatant of NIOCC 2a; experiment: Decolorization using culture supernatant of NIOCC 2a; assay type: biochemical, unidentified marine fungus NIOCC #2a (MTCC 5159); details: dyes 0.02-0.04%, 60° C., pH 6.0, supernatant concentrated two-fold
Method: The process of decolorization of various dyes and effluents using the cell-free supernatant involves addition of filter sterilized culture supernatant of the said fungus grown in the presence of various dyes, inducers and dilute effluents. The decolorization of the effluents was monitored spectrophotometrically at appropriate wavelengths up to 12 hours. The uninoculated culture medium containing these dyes served as control.
NIOCC 2a was grown in B&K medium prepared in sea water of 25 ppt salinity (the pH of the medium being 7.0) for 6 days. It was supplemented with 1% textile effluent B on day 6. The culture supernatant on day 12 was collected and concentrated two-fold. The concentrated enzyme was incubated with various dyes used at concentrations as given in Example 2 and the effluents were used at 10% only. The decolorization was monitored at 6 and 12 hours by incubating the samples in a water bath at 60° C. and pH 6.0 The absorbance maxima specific to that particular dye/effluent was monitored for 6 to 12 hours.

Molecule	comparison of dye degradation by the fungus culture, in words (fungus MTCC 5159)	PERCENT DECOLORIZATION [1]	LACCASE ACTIVITY (NIOCC 2a; day 3)	LACCASE ACTIVITY (NIOCC 2a; day 6)	LACCASE ACTIVITY (NIOCC 2a; day 8)	LACCASE ACTIVITY (NIOCC 2a; day 10)	LACCASE ACTIVITY (NIOCC 2a; day 12)	LACCASE ACTIVITY (NIOCC 2a; day 14)	LACCASE ACTIVITY (NIOCC 2a; day 16)	LACCASE ACTIVITY (NIOCC 2a; day 18)	comparison of inducers of laccase production, in words (NIOCC 2a)	PERCENT DECOLORIZATION ([2]; 6 hours)	PERCENT DECOLORIZATION ([2]; 12 hours)	PERCENT DECOLORIZATION ([1]; listed as Congo red)	PERCENT DECOLORIZATION ([1]; listed as congo red)
Reactive orange 176 [RO 176]	least degraded	100%	21 UL^−1	8 UL^−1	335 UL^−1	949 UL^−1	904 UL^−1	1158 UL^−1	1108 UL^−1	1180 UL^−1					
O=S(=O)([O-])[O-].[Cu+2] [Copper sulphate]											best inducer				
Nc1c(/N=N/c2ccc(-c3ccc(/N=N/c4cc(S(=O)(=O)O)c5ccccc5c4N)cc3)cc2)cc(S(=O)(=O)O)c2ccccc12 [Congo Red, congo red]												54%	47%	29%	not decolorized to these extents
Cc1cc(-c2ccc(/N=N/c3c(S(=O)(=O)O)cc4cc(S(=O)(=O)O)cc(N)c4c3O)c(C)c2)ccc1/N=N/c1c(S(=O)(=O)O)cc2cc(S(=O)(=O)O)cc(N)c2c1O [Trypan Blue, Trypan blue]		79%										22%	25%		
Nc1c(S(=O)(=O)[O-])cc(Nc2cccc(S(=O)(=O)CCOS(=O)(=O)[O-])c2)c2c1C(=O)c1ccccc1C2=O.[Na+].[Na+] [RBBR, remazol brilliant blue R]		100%	3 UL^−1	43 UL^−1	0 UL^−1	0 UL^−1	0 UL^−1	0 UL^−1	0 UL^−1	0 UL^−1		67%	46%		
CN(C)c1ccc(C(=C2C=CC(=[N+](C)C)C=C2)c2ccc(N(C)C)cc2)cc1 [Crystal Violet, crystal violet]		80%										44%	54%		
aniline blue		75%	12 UL^−1	67 UL^−1	21 UL^−1	825 UL^−1	1051 UL^−1	1166 UL^−1	1211 UL^−1	1048 UL^−1		55%	40%		
CN(C)c1ccc2nc3ccc(=[N+](C)C)cc-3sc2c1 [Methylene Blue, methylene blue]												3%	5%		
